In PubChem BioAssay AID1963978 (Molecular Pharmacology Branch, DTP, NCI, 2024):

System: 616215-338-R-J1-PDC spheroids with HUVEC/MSC, viability
Experiment: Anticancer human tumor 616215-338-R-J1-PDC patient-derived colon adenocarcinoma cell line growth inhibition [PI3K]
Conditions: for IC50: curve of first compound; for viability, T/C: stronger effect = lower value
Summary of the method: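 Multi-cell spheroids combine tumor cells with HUVEC and human MSCs, treated with targeted agents alone or with inavolisib, alpelisib, duvelisib or copanlisib. Concentrations fall in half-log steps from at or near clinical Cmax, or from 10 microM where Cmax is unknown; viability read-out.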
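Further: spheroids exposed to agents for seven days before the viability read.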

Q: Which IC50 (second compound 0.0316 µM) does the source give for CC1(C)CCC(Nc2ncc(C(F)(F)F)c(-c3c[nH]c4c(P(C)(C)=O)c(C#N)ccc34)n2)CN1 (configuration not stated) + Cc1nc(NC(=O)N2CCCC2C(N)=O)sc1-c1ccnc(C(C)(C)C(F)(F)F)c1 here?
A: 3.65 µM

Q: And the IC50 (second compound 0.1 µM)?
A: 3.77 µM

Q: What about the IC50 (second compound 0.316 µM) of the same compound?
A: 3.66 µM

Q: What about the IC50 (second compound 1 µM) of the same compound?
A: 3.35 µM

Q: And the IC50 (second compound 3.16 µM)?
A: 1.1 µM

Q: What about the IC50 (second compound 10 µM) of the same compound?
A: 0.185 µM

Q: And the viability, T/C (second compound 0.0316 µM, first compound 0.0316 µM)?
A: 50.7%

Q: What about the viability, T/C (second compound 0.0316 µM, first compound 0.1 µM) of the same compound?
A: 54.1%

Q: And the viability, T/C (second compound 0.0316 µM, first compound 0.316 µM)?
A: 54.7%

Q: What about the viability, T/C (second compound 0.0316 µM, first compound 1 µM) of the same compound?
A: 56.1%

Q: And the viability, T/C (second compound 0.0316 µM, first compound 3.16 µM)?
A: 69.7%

Q: What about the viability, T/C (second compound 0.0316 µM, first compound 10 µM) of the same compound?
A: 0.38%

Q: And the viability, T/C (second compound 0.1 µM, first compound 0.0316 µM)?
A: 64.5%

Q: What about the viability, T/C (second compound 0.1 µM, first compound 0.1 µM) of the same compound?
A: 52%

Q: What about the viability, T/C (second compound 0.1 µM, first compound 0.316 µM) of the same compound?
A: 59.5%

Q: And the viability, T/C (second compound 0.1 µM, first compound 1 µM)?
A: 60%

Q: What about the viability, T/C (second compound 0.1 µM, first compound 3.16 µM) of the same compound?
A: 59.7%

Q: And the viability, T/C (second compound 0.1 µM, first compound 10 µM)?
A: 0.38%

Q: And the viability, T/C (second compound 0.316 µM, first compound 0.0316 µM)?
A: 51.8%

Q: And the viability, T/C (second compound 0.316 µM, first compound 0.1 µM)?
A: 57.8%

Q: And the viability, T/C (second compound 0.316 µM, first compound 0.316 µM)?
A: 59.7%

Q: What about the viability, T/C (second compound 0.316 µM, first compound 1 µM) of the same compound?
A: 52.8%

Q: And the viability, T/C (second compound 0.316 µM, first compound 3.16 µM)?
A: 63.6%

Q: What about the viability, T/C (second compound 0.316 µM, first compound 10 µM) of the same compound?
A: 0.32%

Q: And the viability, T/C (second compound 1 µM, first compound 0.0316 µM)?
A: 61.9%

Q: What about the viability, T/C (second compound 1 µM, first compound 0.1 µM) of the same compound?
A: 45.8%

Q: And the viability, T/C (second compound 1 µM, first compound 0.316 µM)?
A: 53.7%

Q: And the viability, T/C (second compound 1 µM, first compound 1 µM)?
A: 55.8%

Q: And the viability, T/C (second compound 1 µM, first compound 3.16 µM)?
A: 52.5%

Q: And the viability, T/C (second compound 1 µM, first compound 10 µM)?
A: 0.18%

Q: What about the viability, T/C (second compound 3.16 µM, first compound 0.0316 µM) of the same compound?
A: 53.5%

Q: What about the viability, T/C (second compound 3.16 µM, first compound 0.1 µM) of the same compound?
A: 47.5%

Q: What about the viability, T/C (second compound 3.16 µM, first compound 0.316 µM) of the same compound?
A: 48.3%

Q: And the viability, T/C (second compound 3.16 µM, first compound 1 µM)?
A: 57.6%

Q: And the viability, T/C (second compound 3.16 µM, first compound 3.16 µM)?
A: 31.2%

Q: What about the viability, T/C (second compound 3.16 µM, first compound 10 µM) of the same compound?
A: 0.39%

Q: And the viability, T/C (second compound 10 µM, first compound 0.0316 µM)?
A: 61.6%

Q: What about the viability, T/C (second compound 10 µM, first compound 0.1 µM) of the same compound?
A: 51.4%

Q: And the viability, T/C (second compound 10 µM, first compound 0.316 µM)?
A: 46.2%

Q: What about the viability, T/C (second compound 10 µM, first compound 1 µM) of the same compound?
A: 37.1%

Q: And the viability, T/C (second compound 10 µM, first compound 3.16 µM)?
A: 20.2%

Q: What about the viability, T/C (second compound 10 µM, first compound 10 µM) of the same compound?
A: 0.89%
